# “Also recorded” adds a separate entry of the source.
# Key:
# M6PR (Domains 1-9) = molecular target: T1, M6PR (Domains 1-9) (Homo sapiens, UniProt P11717); test: General M6PR binding assay (fluorescence polarization); conditions: 100 nM M6PR, 1 nM probe, 2 hr incubation
# T1 construct: with 100 nM M6PR (Domains 1-9, R&D Systems) and 1 nM probe; purchased R&D Systems
# Experimental: M6PR binding was measured in black 96-well plates using a fluorescence polarization assay. A fluorescent probe consisting of a reference M6Pn ligand linked to Cy5 was synthesized. Test compounds were resuspended in DMSO and 3-fold serial dilutions were made at 100× final concentrations. Binding reactions were conducted in 100 μl final volume in 20 mM HEPES (pH 7.5) 100 mM NaCl 0.015% o Tween-20 1% DMSO with 100 nM M6PR (Domains 1-9, R&D Systems) and 1 nM probe. Fluorescence polarization was measured using λex=620 nm, λem=688 nm on an Envision plate reader (Perkin Elmer) after 2 hr incubation time. Dose responses were conducted in duplicate and normalized to the response with DMSO (high) and 1 μM reference compound (low) on each plate. IC50 values were determined by fitting to 4-parameter curves in GraphPad Prism.
# Jurkat cells [1] = test: Uptake of IgE-Alexa488 target protein in Jurkat cells; type: cell-based
# Experimental: The omalizumab conjugates of Example 142 were bound to IgE-Alexa488 (prepared according to Example 144), as follows: equal molar ratios of omalizumab (anti-IgE) conjugate and IgE-Alexa488 were added in tissue culture media for 30 minutes at room temperature. The resulting anti-IgE conjugate:IgE antibody-Alexa488 compositions were added to Jurkat cells (100 k cells/50 ul per well, n=2), and Alexa488 fluorescence levels in the cells were measured at 1 hour by flow cytometry. As the fluorescently labelled target (IgE antibody) accumulates in cells, the fluorescence presents a way to measure total intracellular uptake by cells over time.
# [2] = Serum pharmacokinetic analysis of rIgG1 (anti-IgG2a) antibody conjugates; type: in vivo, mice; conditions: intravenous 10 μg/mouse, compared to Compound I-7
# Experimental: A pharmacokinetic analysis of the rIgG1 (anti-IgG2a) antibody conjugates described in the previous example was performed in mice. In particular, […] mice were intravenously administered each rIgG1 antibody conjugate at 10 μg/mouse (5 mice per group). Blood was collected at 0.5, 1, 2, 6, and 24 hours and serum rIgG1 was analyzed using an ELISA kit (Abcam) according to the manufacturer's instructions. Samples were run across 3 different plates with unconjugated rIgG1 controls (UNLB-anti-IgG2a rIgG1) included on all 3 plates. FIGS. 8A-8C show the serum levels of anti-IgG2a conjugated to Compound 1-7 (dar8) and (dar4) (FIG. 8A), anti-IgG2a conjugated to Compound I-10 and anti-IgG2a conjugated to Compound I-11 (FIG. 8B), and anti-IgG2a conjugated to Compound I-9 and anti-IgG2a conjugated to Compound I-12 (FIG. 8C) over time.
# Jurkat cells [3] = test: Uptake of IgG2a-Alexa488 into Jurkat cells; type: cell-based; conditions: anti-IgG2a conjugates, 1 hour and 24 hours
# Experimental: The anti-IgG2a conjugates were bound to IgG2a-Alexa488, as follows: equal molar ratios of anti-IgG2a and IgG2a-Alexa488 were added in tissue culture media for 30 minutes at room temperature. The resulting anti-IgG2a:IgG2a antibody-Alexa488 compositions were added to Jurkat cells (100 k cells/50 ul per well, n=2), and Alexa488 fluorescence levels were measured (via Alexa488 measurement) at 1 hour and 24 hours by flow cytometry. As the fluorescently labelled target (IgG2a antibody) accumulates in cells, the fluorescence presents a way to measure total intracellular uptake by cells over time.
# CI-M6PR [4] = molecular target: T2, CI-M6PR (Homo sapiens, UniProt P11717); test: Human CI-M6PR binding assay (ELISA); set-up: purchased R&D 6418-GR-050; conditions: for binding affinity to M6PR, rank among the conjugates tested: matuzumab conjugates (FIGS. 7A-7F), I-7 at d8 (DAR 8), I-11 at d4 (DAR 4)
# Experimental: Nunc black solid bottom MaxiSorp plates were allowed to incubate overnight at 4° C. coated with 1 μg/mL of recombinant human CI-M6PR protein (R&D, 6418-GR-050) in 50 μL PBS. The next day, coating was decanted and plates were washed 3× with PBS. Wells were blocked with 350 μL of 3% BSA-PBS for 1 hour at room temperature. […] 50 μL of diluted conjugates were added to the plate and allowed to incubate at room temperature for 2 hours. After incubation, solutions in plate were decanted and washed with 350 μL of 0.05% PBS-Tween20 three times, drying the plate each wash on a clean paper towel. 50 μL of peroxidase AffiniPure Mouse Anti-Human IgG (Jackson Immuno, 209-035-088) diluted in 3% BSA-PBS to […] was added to the plate and allowed to incubate for 1 hour at room temperature in the dark. After incubation, solutions in plate were decanted and washed with 350 μL of 0.05% PBS-Tween20 3 times, drying the plate each wash on a clean paper towel. […] 50 μL of QuantaBlu solution was added to wells and allowed to incubate for 5-10 minutes at room temperature. After incubation, plates were read on a Perkin Elmer EnVision using photometric 340 and Umbelliferone 460 filter sets for excitation and emission, respectively. Data analysis and non-linear curve-fitting was performed using GraphPad Prism.
# Target sequence in this assay (P11717 41-1365 limits assumed): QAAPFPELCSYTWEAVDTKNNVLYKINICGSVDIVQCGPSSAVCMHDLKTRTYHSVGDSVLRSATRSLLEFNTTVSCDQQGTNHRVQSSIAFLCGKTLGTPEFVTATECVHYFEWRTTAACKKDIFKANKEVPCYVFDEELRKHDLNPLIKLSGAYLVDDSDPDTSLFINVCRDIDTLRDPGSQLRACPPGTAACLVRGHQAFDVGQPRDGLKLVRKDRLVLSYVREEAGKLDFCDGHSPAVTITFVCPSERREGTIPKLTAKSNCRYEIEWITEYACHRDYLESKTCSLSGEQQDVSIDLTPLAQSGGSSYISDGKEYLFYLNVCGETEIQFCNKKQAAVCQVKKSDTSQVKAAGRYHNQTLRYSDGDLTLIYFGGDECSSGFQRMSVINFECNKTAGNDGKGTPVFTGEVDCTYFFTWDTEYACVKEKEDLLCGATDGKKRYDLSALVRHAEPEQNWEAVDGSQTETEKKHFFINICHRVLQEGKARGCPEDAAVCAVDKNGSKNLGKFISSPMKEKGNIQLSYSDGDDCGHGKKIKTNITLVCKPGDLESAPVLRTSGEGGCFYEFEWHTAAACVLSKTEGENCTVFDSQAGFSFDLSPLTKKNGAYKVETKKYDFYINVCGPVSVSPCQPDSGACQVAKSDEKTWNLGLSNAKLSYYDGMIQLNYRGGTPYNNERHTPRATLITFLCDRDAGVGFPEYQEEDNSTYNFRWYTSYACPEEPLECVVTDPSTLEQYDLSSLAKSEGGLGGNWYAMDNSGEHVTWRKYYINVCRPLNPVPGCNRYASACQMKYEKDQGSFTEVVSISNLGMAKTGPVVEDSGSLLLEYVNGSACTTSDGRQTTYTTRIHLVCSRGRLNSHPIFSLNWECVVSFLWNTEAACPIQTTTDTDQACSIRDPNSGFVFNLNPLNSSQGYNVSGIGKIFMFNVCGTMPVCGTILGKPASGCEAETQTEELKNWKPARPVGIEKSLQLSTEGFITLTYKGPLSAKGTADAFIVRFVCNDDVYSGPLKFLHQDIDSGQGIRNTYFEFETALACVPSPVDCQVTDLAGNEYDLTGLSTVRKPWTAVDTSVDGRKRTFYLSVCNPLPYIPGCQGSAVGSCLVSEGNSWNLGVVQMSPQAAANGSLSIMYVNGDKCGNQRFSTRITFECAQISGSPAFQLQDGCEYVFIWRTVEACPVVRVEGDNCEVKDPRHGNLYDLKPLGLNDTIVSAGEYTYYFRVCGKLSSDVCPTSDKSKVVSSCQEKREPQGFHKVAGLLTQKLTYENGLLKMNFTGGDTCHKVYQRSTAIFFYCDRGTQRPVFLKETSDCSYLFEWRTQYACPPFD
# CI-M6PR [5] = molecular target: T2, CI-M6PR; test: CI-M6PR SPR binding assay; conditions: omalizumab conjugates at DAR of about 4; relative to 529 and 552
# Experimental: The CI-M6PR binding affinities of omalizumab (anti-IgE) conjugates of Table 19 were also assessed via SPR binding assay. […] At equivalent DAR (m) values, the koff rate of the omalizumab (anti-IgE) conjugates was 552>529>570.
# Target sequence in this assay (P11717 41-2491): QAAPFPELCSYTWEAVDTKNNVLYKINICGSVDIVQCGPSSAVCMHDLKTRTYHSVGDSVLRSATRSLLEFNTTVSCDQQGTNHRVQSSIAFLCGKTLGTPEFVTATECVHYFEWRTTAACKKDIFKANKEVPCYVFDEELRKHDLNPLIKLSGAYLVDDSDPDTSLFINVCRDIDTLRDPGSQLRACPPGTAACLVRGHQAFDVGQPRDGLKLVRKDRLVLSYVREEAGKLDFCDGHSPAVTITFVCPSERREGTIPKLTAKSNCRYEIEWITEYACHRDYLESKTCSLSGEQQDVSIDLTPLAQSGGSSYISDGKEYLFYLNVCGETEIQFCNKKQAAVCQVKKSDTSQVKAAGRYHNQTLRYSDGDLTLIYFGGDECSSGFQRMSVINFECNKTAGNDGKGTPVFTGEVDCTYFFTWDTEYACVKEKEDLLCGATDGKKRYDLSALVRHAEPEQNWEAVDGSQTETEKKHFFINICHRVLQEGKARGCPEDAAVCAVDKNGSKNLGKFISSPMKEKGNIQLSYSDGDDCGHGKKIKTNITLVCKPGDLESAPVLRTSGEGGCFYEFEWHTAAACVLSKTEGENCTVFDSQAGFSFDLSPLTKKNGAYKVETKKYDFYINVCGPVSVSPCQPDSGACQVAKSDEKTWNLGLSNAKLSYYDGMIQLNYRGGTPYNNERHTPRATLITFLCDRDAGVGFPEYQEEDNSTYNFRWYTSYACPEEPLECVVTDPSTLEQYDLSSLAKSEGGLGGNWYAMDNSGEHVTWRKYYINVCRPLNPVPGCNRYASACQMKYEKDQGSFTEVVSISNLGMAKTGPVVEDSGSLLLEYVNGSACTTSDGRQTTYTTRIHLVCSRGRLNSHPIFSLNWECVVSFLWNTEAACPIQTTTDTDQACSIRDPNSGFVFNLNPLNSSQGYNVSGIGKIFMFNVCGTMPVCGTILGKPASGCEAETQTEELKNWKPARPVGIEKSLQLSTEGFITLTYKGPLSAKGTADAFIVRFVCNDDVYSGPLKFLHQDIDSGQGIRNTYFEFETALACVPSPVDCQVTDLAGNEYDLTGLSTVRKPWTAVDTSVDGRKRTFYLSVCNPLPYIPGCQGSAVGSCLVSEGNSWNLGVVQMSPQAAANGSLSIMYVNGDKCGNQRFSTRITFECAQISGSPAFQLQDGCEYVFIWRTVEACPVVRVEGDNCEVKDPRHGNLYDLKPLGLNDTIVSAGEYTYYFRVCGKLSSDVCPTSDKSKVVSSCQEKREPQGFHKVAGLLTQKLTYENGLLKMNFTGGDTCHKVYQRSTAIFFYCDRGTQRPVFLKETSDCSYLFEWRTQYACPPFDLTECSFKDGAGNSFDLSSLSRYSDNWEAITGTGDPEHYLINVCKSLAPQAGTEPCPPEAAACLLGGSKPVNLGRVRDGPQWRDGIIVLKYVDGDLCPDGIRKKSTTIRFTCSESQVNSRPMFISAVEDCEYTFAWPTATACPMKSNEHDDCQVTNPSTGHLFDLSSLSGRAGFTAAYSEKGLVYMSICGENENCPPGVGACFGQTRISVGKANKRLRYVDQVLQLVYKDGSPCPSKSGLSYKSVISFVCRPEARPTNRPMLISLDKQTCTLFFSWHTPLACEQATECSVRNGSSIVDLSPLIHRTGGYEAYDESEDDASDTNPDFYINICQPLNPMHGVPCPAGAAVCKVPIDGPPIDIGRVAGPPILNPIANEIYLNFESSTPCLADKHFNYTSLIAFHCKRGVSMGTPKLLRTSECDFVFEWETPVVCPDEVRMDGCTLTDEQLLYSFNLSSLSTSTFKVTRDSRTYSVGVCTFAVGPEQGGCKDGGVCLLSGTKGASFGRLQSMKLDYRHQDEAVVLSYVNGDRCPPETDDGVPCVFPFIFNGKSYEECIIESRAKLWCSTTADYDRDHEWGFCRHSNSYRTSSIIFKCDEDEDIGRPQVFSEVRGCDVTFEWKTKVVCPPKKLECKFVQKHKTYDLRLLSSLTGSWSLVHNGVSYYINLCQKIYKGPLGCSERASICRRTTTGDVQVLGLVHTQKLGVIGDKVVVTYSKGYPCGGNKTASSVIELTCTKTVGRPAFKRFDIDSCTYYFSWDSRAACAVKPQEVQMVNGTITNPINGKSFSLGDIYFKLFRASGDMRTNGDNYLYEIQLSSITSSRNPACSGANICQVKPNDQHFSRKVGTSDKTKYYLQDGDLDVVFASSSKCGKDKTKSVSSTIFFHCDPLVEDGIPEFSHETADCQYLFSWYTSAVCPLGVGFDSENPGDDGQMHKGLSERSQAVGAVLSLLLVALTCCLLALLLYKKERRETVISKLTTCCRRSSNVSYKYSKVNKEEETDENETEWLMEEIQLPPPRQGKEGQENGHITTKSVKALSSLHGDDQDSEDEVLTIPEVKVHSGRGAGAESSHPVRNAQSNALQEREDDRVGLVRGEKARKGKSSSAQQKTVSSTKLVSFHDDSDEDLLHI
# [6] = omalizumab conjugates of Table 15A, Jurkat cells, 1 hour (FIG. 15-17)
# [7] = omalizumab conjugates of Table 15B, Jurkat cells, 1 hour (FIG. 18-21)
# [8] = omalizumab conjugates of Table 19, Jurkat cells (FIG. 23)
# T1 sequence (P11717 41-1365 limits assumed): as the sequence (P11717 41-1365 limits assumed) above
structure (smiles),measurement,setting,value
O=C(NCCCCc1cn(-c2cccnc2)nn1)Nc1ccc(S[C@@H]2O[C@H](CCP(=O)(O)O)[C@@H](O)[C@H](O)[C@@H]2O)cc1 [Compound P3],IC50,M6PR (Domains 1-9),0.1 to 0.5 µM
O=C(NCCCCc1cn(-c2cccnc2)nn1)Nc1ccc(S[C@H]2O[C@H](CCP(=O)(O)O)[C@@H](O)[C@H](O)[C@@H]2O)cc1 [Compound P4],IC50,M6PR (Domains 1-9),0.1 to 0.5 µM
O=C(NCCCCc1cn(CCOCCOCCOCCOCCC(=O)Oc2c(F)c(F)c(F)c(F)c2F)nn1)Nc1ccc(O[C@H]2C[C@H](CCP(=O)(O)O)[C@@H](O)[C@H](O)[C@@H]2O)cc1 [Compound 665],cellular uptake activity of Alexa488 labeled-target IgE,Jurkat cells [1]; [6],low activity
O=C(CCOCCn1cc(CCO[C@H]2O[C@H](CCP(=O)(O)O)[C@@H](O)[C@H](O)[C@@H]2O)nn1)Oc1c(F)c(F)c(F)c(F)c1F [Compound I-11],half-life in mice,[2],longer half-life
same,intracellular uptake of IgG2a-Alexa488,Jurkat cells [3],sufficiently robust uptake
same,binding affinity to M6PR compared to Compound I-7,CI-M6PR [4]; conjugates of ligand linkers,weaker binding affinity
O=C(NCCCCc1cn(-c2cccnc2)nn1)Nc1ccc(O[C@H]2O[C@H](CCP(=O)(O)O)[C@@H](O)[C@H](O)[C@@H]2O)cc1 [Compound P2],IC50,M6PR (Domains 1-9),0.1 to 0.5 µM
CO[C@H]1C[C@H](c2cn(CCOCCOCCOCCOCCOCCOCCC(=O)Oc3c(F)c(F)c(F)c(F)c3F)nn2)[C@@H](O)[C@H](O)[C@@H]1O[C@H]1O[C@H](CCP(=O)(O)O)[C@@H](O)[C@H](O)[C@@H]1O [Compound 660],cellular uptake activity of Alexa488 labeled-target IgE,Jurkat cells [1]; [7],potent and comparable activity
O=C(NCCCCc1cn(CCOCCOCCOCCOCCC(=O)Oc2c(F)c(F)c(F)c(F)c2F)nn1)Nc1ccc(S[C@H]2O[C@H](CCP(=O)(O)O)[C@@H](O)[C@H](O)[C@@H]2O)cc1 [Compound 552],cellular uptake activity of Alexa488 labeled-target IgE,Jurkat cells [1]; [7],comparable activity; also recorded: more activity when at m=6 loading versus m=4 loading
same,cellular uptake activity of Alexa488 labeled-target IgE,Jurkat cells [1]; [8],comparable by less activity
O=C(CCOCCOCCOCCN(CCOCCOCCOCCn1cc(CCO[C@H]2O[C@H](CCP(=O)(O)O)[C@@H](O)[C@H](O)[C@@H]2O)nn1)CCOCCOCCOCCn1cc(CCO[C@H]2O[C@H](CCP(=O)(O)O)[C@@H](O)[C@H](O)[C@@H]2O)nn1)Oc1c(F)c(F)c(F)c(F)c1F [Compound 716],cellular uptake activity of Alexa488 labeled-target IgE,Jurkat cells [1]; [6],inferior uptake
CO[C@H]1O[C@H](COCCCCCc2cn(CCOCCOCCOCCOCCC(=O)Oc3c(F)c(F)c(F)c(F)c3F)nn2)[C@@H](O)[C@H](O)[C@@H]1O[C@H]1O[C@H](CCP(=O)(O)O)[C@@H](O)[C@H](O)[C@@H]1O [Compound 659],cellular uptake activity of Alexa488 labeled-target IgE,Jurkat cells [1]; [7],potent and comparable activity
O=C(CCOCCn1cc(CCO[C@H]2O[C@H](CCP(=O)(O)O)[C@@H](O)[C@H](O)[C@@H]2O)nn1)Oc1c(F)c(F)c(F)c(F)c1F [605 (I-11)],"binding affinity to M6PR, rank among the conjugates tested",CI-M6PR [4],lowest binding affinity
O=C(NCCCCc1cn(-c2cccnc2)nn1)Nc1ccc(O[C@@H]2O[C@H](CCP(=O)(O)O)[C@@H](O)[C@H](O)[C@@H]2O)cc1 [Compound P1],IC50,M6PR (Domains 1-9),0.1 to 0.5 µM
O=C(NCCCCc1cn(CCOCCOCCOCCOCCC(=O)Oc2c(F)c(F)cc(F)c2F)nn1)Nc1ccc(O[C@H]2O[C@H](CCP(=O)(O)O)[C@@H](O)[C@H](O)[C@@H]2O)cc1 [Compound 558],cellular uptake activity of Alexa488 labeled-target IgE,Jurkat cells [1]; [6],"active in this assay, although less active"
O=C(CCOCCOCCOCCOCCn1cc(CCCCNC(=S)Nc2ccc(O[C@H]3O[C@H](CCP(=O)(O)O)[C@@H](O)[C@H](O)[C@@H]3O)cc2)nn1)Oc1c(F)c(F)c(F)c(F)c1F [520 (I-7)],"binding affinity to M6PR, rank among the conjugates tested",CI-M6PR [4],highest
O=C(NCCCCc1cn(CCOCCOCCOCCOCCC(=O)Oc2c(F)c(F)c(F)c(F)c2F)nn1)Nc1ccc(S[C@@H]2O[C@H](CCP(=O)(O)O)[C@@H](O)[C@H](O)[C@@H]2O)cc1 [Compound 570],cellular uptake activity of Alexa488 labeled-target IgE,Jurkat cells [1]; [7],superior activity
same,cellular uptake activity of Alexa488 labeled-target IgE,Jurkat cells [1]; [8],superior activity
same,Kd,CI-M6PR [5],superior Kd

# From patent US20260216345A1, “M6PR BINDING COMPOUNDS AND CONJUGATES” (Lycia Therapeutics, Inc., priority 2023, published 2026)
